{"source": "paper PMC11274654", "about": "(Biomedicines, 2024)", "key": {"[1]": {"system": "Rat Calvarial Osteoblasts (RCOs)", "assay": "ALP assay (osteoblast differentiation) in rat calvarial osteoblasts", "type": "cell-based", "protocol": "Sequential digestion was performed to isolate calvarial osteoblast cells from neonatal rat pups. Briefly, calvariae were harvested from ten to twelve 1–2-day old rat pups, cleaned, and subjected to five sequential enzymatic digestions (0.1% dispase and 0.1% collagenase I) of 10–15 min each, followed by culturing of the harvested cells in α-MEM supplemented with 10% FBS [22].\nRCOs were seeded in 24-well plates (1 × 10^4 cells/well), and the cells were treated for 48 h in osteoblast differentiation media (α-MEM supplemented with 10 mM β-glycerophosphate and 50 μg/mL ascorbic acid) with the imidazole group of chemicals (10^−11 M–10^−6 M).\nA total of 2 mg/mL of para-Nitrophenyl phosphate in diethanolamine buffer was used to measure the ALP activity at a 405 nm wavelength."}, "rat BMSCs (rBMSCs)": {"system": "rat BMSCs (rBMSCs)", "assay": "ALP activity in rat bone marrow stromal cells", "type": "cell-based", "conditions": "1 nM, seven days post-treatment"}, "C3H10T1/2 cells": {"system": "C3H10T1/2 cells", "assay": "Nodule mineralization (Alizarin Red S) in C3H10T1/2 cells", "type": "cell-based, murine", "conditions": "21 days, differentiation medium", "protocol": "In a different set of experiments, 3 × 10^6 C3H10T1/2 cells were seeded in a 60 mm culture dish. Then, 24 h post-seeding, the vehicle or MTZ treatment was conducted, and the media were changed every alternate day for 21 days using a differentiation medium.\nCells were fixed with 10% formalin for 15 min and stained with Alizarin Red for 1 h after 21 days of culture. Moreover, 10% cetylpyridinium chloride (Sigma #C0732) was used to quantify mineralized nodules at a 595 nm wavelength."}, "[2]": {"system": "GSK3β phosphorylation in RCO", "assay": "Western blotting of p-GSK/GSK in RCO", "type": "cell-based, rat", "conditions": "10 nM", "protocol": "Western blotting was performed as previously described. Briefly, whole-cell extracts (WCEs) were prepared at indicated time points using RIPA lysis buffer, and aliquots of 30 μg protein per lane were loaded and resolved on SDS-PAGE (10%), followed by blotting onto the PVDF membrane (Millipore Inc., Burlington, MA, USA). The membrane was blocked in 1% BSA, followed by immunoblotting with primary antibodies: Runx2 (ab 76956) (1:1000), pGSK (9323S) (1:1000), and GSK (9315S) (1:1000) at 4 °C overnight. Anti-rabbit HRP secondary antibody (Sigma, catalog number A0545) (1:3000) was used for Runx2, pGSK3β, and GSK3β. Bands were detected by incubating the membranes with ECL substrate (Thermo Fisher Scientific, Waltham, MA, USA) and developed on ChemiDoc (Image Quant LAS 4000, GE Healthcare, Hatfield, UK). Blots were re-probed after washing with mild stripping buffer (1.5% Glycine, 0.1% SDS, and 1% Tween 20)."}, "[3]": {"system": "β-catenin nuclear translocation in osteoblasts (RCO)", "assay": "Immunofluorescence of β-catenin nuclear translocation in RCO", "type": "cell-based, rat", "conditions": "10 nM", "protocol": "RCOs were grown on Lab-Tek Chamber Slides (Nunc, Penfield, NY, USA) to 40–50% confluence for 24 h. After treatment with MTZ at different time points, cells were fixed with 4% formaldehyde, followed by permeabilization with 0.1% Triton™ X-100 for 15 min, blocked with 2% goat serum for 2 h, and labeled with primary antibody against β-catenin (Cell Signaling Technology, Danvers, MA, USA, catalog number 9562S) (1:100) overnight at 4 °C in a moist chamber. Alexa Fluor® 594 (Abcam, Cambridge, UK, catalog number ab150080) was used as a secondary antibody (1:200 dilution) for 2 h at room temperature. […]"}, "[4]": {"system": "trabecular bone of OVX osteopenic rats", "assay": "OVX osteopenia model, micro-CT of trabecular bone", "type": "in vivo, SD rats", "conditions": "235 mg/kg oral, 3 months", "protocol": "The 10-month-old (265 ± 20 g) SD rats were ovariectomized (OVX) bilaterally and left for 3 months to develop osteopenia. Ovary-intact sham-operated animals were used as a control. A live animal micro-CT was performed to confirm osteopenia, followed by dividing the animals into 3 groups: Sham + vehicle (water, oral), OVX + vehicle (water, oral), and OVX + MTZ (235 mg/kg, oral). Each group had 9 rats, and treatment were administered for 3 months. Calcein (20 mg/kg, s.c.) was injected twice before sacrificing at 10-day intervals. A SkyScan 1076 μCT scanner (SkyScan, Ltd., Kartuizersweg, Kontich, Belgium) was used to perform a high-resolution μCT for the two-dimensional and three-dimensional assessment of excised bones. The rat bone scanning process used an isotropic voxel pixel size of 18 μm and an X-ray source of 70 kV and […]. Utilizing the SkyScan Nrecon software (Version: 1.7.0.4), cross-sectional reconstruction was performed. In order to examine the trabecular region of the femur and tibia, 100 slices were used to draw the region of interest (ROI), which was limited to the secondary spongiosa region 1.5 mm from the growth plate’s distal border. The primary spongiosa and cortical bone were not included in the ROI. A ROI was drawn on 70 slices of the mid-vertebral region for the L5 vertebral study. The Batman software (Version: 1.16.8.0+), with trabecular (3D) bone analysis programs was used for quantification."}, "[5]": {"system": "serum P1NP and CTX-I of OVX rats", "assay": "OVX osteopenia model, serum bone turnover markers (ELISA)", "type": "in vivo, SD rats", "conditions": "235 mg/kg oral, 3 months", "protocol": "The 10-month-old (265 ± 20 g) SD rats were ovariectomized (OVX) bilaterally and left for 3 months to develop osteopenia. Ovary-intact sham-operated animals were used as a control. A live animal micro-CT was performed to confirm osteopenia, followed by dividing the animals into 3 groups: Sham + vehicle (water, oral), OVX + vehicle (water, oral), and OVX + MTZ (235 mg/kg, oral). Each group had 9 rats, and treatment were administered for 3 months. Calcein (20 mg/kg, s.c.) was injected twice before sacrificing at 10-day intervals. The levels of serum procollagen type I N-terminal peptide (P1NP) and serum cross-linked C-telopeptide of type I collagen (CTX-I) were assessed using ELISA (MyBioSource, San Diego, CA, USA), in accordance with the manufacturer’s protocol."}, "[6]": {"conditions": "femur and tibia metaphyses, OVX rats"}, "[7]": {"conditions": "proximal femur and tibia metaphyses, OVX rats"}}}
{"compound": "Cc1ncc([N+](=O)[O-])n1CCO", "note": "[Metronidazole]", "values": [{"measurement": "Activity in ALP Assay (Positive/Negative)", "setting": "[1]; 48 h", "result": "Positive"}, {"measurement": "Effect on ALP activity compared to the control (vehicle)", "setting": "[1]; 48 h", "result": "significantly increased"}, {"measurement": "EC50", "setting": "[1]; Rattus norvegicus, Calvarial osteoblast, 48 h in osteoblast differentiation media", "result": 1.2, "unit": "nM"}, {"measurement": "ALP activity compared to the vehicle group", "setting": "rat BMSCs (rBMSCs)", "result": "increased"}, {"measurement": "Mineralization", "setting": "C3H10T1/2 cells", "result": "promoted mineralization"}, {"measurement": "GSK3β phosphorylation", "setting": "[2]", "result": "increased GSK3β phosphorylation in a time-dependent manner"}, {"measurement": "Time of maximum effect on GSK3β phosphorylation", "setting": "[2]", "result": 15, "unit": "min"}, {"measurement": "β-catenin nuclear translocation", "setting": "[3]", "result": "induced"}, {"measurement": "Trabecular bone parameters at vertebra (L5)", "setting": "[4]; L5, OVX rats", "result": "failed to restore"}, {"measurement": "Trabecular number (Tb.N)", "setting": "[4]; [6]", "result": "significant enhancement"}, {"measurement": "Trabecular spacing (Tb.sp)", "setting": "[4]; [6]", "result": "restored trabecular spacing (Tb.sp) to sham levels"}, {"measurement": "Trabecular thickness (Tb.Th)", "setting": "[4]; [6]", "result": "complete restoration"}, {"measurement": "BMD", "setting": "[4]; [7]", "result": "significantly increased"}, {"measurement": "Bone volume (BV/TV)", "setting": "[4]; [7]", "result": "significantly increased"}, {"measurement": "Serum bone formation marker P1NP levels", "setting": "[5]", "result": "restored"}, {"measurement": "Serum resorption marker CTX-1", "setting": "[5]", "result": "failed to reduce it"}]}
